{"source": "patent US5505944A", "about": "“Physiologically active substance NK175203, process for production thereof and pharmaceutical use thereof” (Nippon Kayaku Kabushiki Kaisha, priority 1992, dated 1996)", "test_system": "bone marrow cells", "experiment": "Bone marrow cell proliferation activity (uptake of [3H]-thymidine)", "type": "cell-based, C57BL/6 mouse", "conditions": "GM-CSF 100 U/ml alone, NK175203 0 μg/ml", "protocol": "The femur was withdrawn from C57BL/6 mouse (10 weeks old) and the bone marrow cells were washed out in Eagle's MEM medium. After allowing to stand at 37° C. for 2 hours in 5% CO2, the supernatant was gently taken to recover the suspended cells alone. The cells were centrifuged at 1200 rpm for 5 minutes to collect the cells. After rinsing with α-MEM medium, the cells were suspended in 20% FBS-containing α-MEM medium. The thus obtained bone marrow cells were inoculated on a 96-well plate in a concentration of 7.5×10^5 cells/200 μl/well, together with the physiologically active substance NK175203 of the present invention or GM-CSF (Lantrell, M. A. et al., Proc. Natl. Acad. Sci., 8.2, 6250-6254, 1985). Incubation was then performed at 37° C. for 112 hours in 5% CO2. Finally ^3 H-thymidine of 37 KBq was added to the system. After culturing for 8 hours, uptake of ^3 H-thymidine into the cells was determined by a liquid scintillation counter.", "data": [{"substance": "GM-CSF: GM-CSF (Lantrell, M. A. et al., Proc. Natl. Acad. Sci.)", "values": [{"measurement": "Uptake of [3H]-Thymidine, mean ± standard error", "result": "33484.4 ± 2136.1"}, {"measurement": "Uptake of [3H]-Thymidine, %", "setting": "reference (100%) of the GM-CSF series", "result": 100, "unit": "%"}]}]}
